The source of these data is US11926618B2, “Halogen-substituted phenylate compound and applications thereof” (HINOVA PHARMACEUTICALS INC., priority 2019, dated 2024).

One data set has as its target T1, THR-β (Homo sapiens, UniProt P10828).
T1 construct: A mixed solution of 4× TRα-LBD or TRβ-LBD and 4× RXRα was prepared
In words: Agonistic activity on THR-β (TRβ-LBD/RXRα, biotin-SRC2-2 recruitment, fluorescence ratio 665 nm/615 nm). It counts as biochemical. The conditions noted are these: for Selectivity THR-β/THR-α: THR-α EC50 ÷ THR-β EC50; for Agonistic activity for THR-β compared to control compound MGL-3196: in words, versus MGL-3196. As to the method: (§1) 100× solutions of reference compounds or compounds were prepared with DMSO and then diluted in a 1:3 equal ratio. The gradient dilution of 100× reference compound or compound was further diluted to 4× with 1× reaction buffer and then added to the test plate. A mixed solution of 4× TRα-LBD or TRβ-LBD and 4× RXRα was prepared with 1× reaction buffer and added to the test plate. […] The plate was centrifuged at 1000 rpm for 1 min and then incubated at room temperature and in the dark for 4 h.

Another data set has as its target T2, THR-α (Homo sapiens, UniProt P10827).
T2 construct: A mixed solution of 4× TRα-LBD or TRβ-LBD and 4× RXRα was prepared
The data set can be described thus: Agonistic activity on THR-α (TRα-LBD/RXRα, biotin-SRC2-2 recruitment, fluorescence ratio 665 nm/615 nm). Format: biochemical. The conditions noted are these: for Agonistic activity for THR-α compared to control compound MGL-3196: in words, versus MGL-3196. As to the method: as §1

Data set [1] in a line: Pharmacokinetic test in ICR mice, plasma concentration by LC/MS/MS. Format: in vivo. The following applies: for AUC(0-inf): read-out: Exposure AUCinf. As to the method:
• Polyethylene glycol 400 (PEG400), manufacturer: Chengdu Kelong Chemical Reagent Factory; • Hydroxypropyl 3-cyclodextrin (HP-β-CD), manufacturer: Shanghai Dibai Chemical Technology Co., Ltd.; • HPC LF, manufacturer: Chengdu Yuannuo Tiancheng Technology Co., Ltd.; • Heparin sodium, manufacturer: Chengdu Kelong Chemical Reagent Factory. • Experimental animals: ICR mice (Chengdu Dossy Experimental Animals CO., LTD.) 2) Experimental Method
Preparation of Test Compound Solution
IV group: 1.15 mg of test compound was accurately weighed, and then DMA (0.228 ml) was added to dissolve the compound, to which were successively added PEG400 (1.139 ml) and 0.1 M of phosphate buffer (5.012 ml). Finally, 40% HP-B-CD was added to the final volume of 11.39 ml. The solution was thoroughly mixed by ultrasonic vortex. A clear solution at the concentration of 0.1 mg/ml was prepared.
PO group: 5.06 mg of test compound was precisely weighed, and then 2% HPC LF (containing 0.1% Tween-80) was added to the final volume of 20.04 ml. The solution was mixed by ultrasound, to prepare a uniform suspension at the concentration of 0.25 mg/ml.
After fasting overnight (free drinking water), nine adult ICR mice (3 mice for each time point) were administered by injection via tail vein and by gavage, respectively. For IV group, 5 min, 15 min, 0.5 h, 1 h, 2 h, 4 h, 8 h, 12 h and 24 h after administration, 0.1 ml of blood was collected from the submandibular vein, centrifuged at 4° C. for 5 min to separate the plasma, and stored at −20° C. for detection. For PO group, before administration and 0.5 h, 1 h, 2 h, 4 h, 6 h, 8 h, 12 h and 24 h after administration, 0.1 ml of blood was collected from the submandibular vein, and the processing was the same as that of IV group.
Then, the concentration of original drug in plasma was determined by LC/MS/MS. The plasma concentration-time curve was plotted, and the main pharmacokinetic parameters were calculated with WinNonlin 6.3 software (see Table 2).

Like-named read-outs stand apart in the source and are kept apart here.

T2 sequence (P10827 163-410 isoform P10827-2 limits assumed, other chains not shown): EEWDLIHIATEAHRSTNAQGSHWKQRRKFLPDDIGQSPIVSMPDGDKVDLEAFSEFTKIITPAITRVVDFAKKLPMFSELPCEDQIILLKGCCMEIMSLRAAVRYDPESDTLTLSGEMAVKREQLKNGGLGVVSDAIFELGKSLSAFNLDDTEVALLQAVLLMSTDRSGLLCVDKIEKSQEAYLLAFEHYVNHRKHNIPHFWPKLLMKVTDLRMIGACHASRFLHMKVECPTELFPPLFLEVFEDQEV
T2 sequence (P19793 whole entry partner, other chains not shown, the tested form may be a part): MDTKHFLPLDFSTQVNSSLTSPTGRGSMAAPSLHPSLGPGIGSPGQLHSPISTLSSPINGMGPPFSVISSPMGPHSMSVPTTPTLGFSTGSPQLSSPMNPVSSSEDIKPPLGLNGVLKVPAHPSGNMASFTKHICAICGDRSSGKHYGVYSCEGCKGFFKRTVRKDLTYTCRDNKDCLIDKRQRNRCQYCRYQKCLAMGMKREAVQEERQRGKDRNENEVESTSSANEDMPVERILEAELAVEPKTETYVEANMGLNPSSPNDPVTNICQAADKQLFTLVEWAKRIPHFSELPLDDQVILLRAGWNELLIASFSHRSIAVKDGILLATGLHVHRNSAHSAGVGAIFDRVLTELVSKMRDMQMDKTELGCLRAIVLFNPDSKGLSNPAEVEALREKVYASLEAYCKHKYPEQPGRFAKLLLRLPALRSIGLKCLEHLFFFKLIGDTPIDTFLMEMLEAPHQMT
T1 sequence (P10828 217-461 limits assumed, other chains not shown): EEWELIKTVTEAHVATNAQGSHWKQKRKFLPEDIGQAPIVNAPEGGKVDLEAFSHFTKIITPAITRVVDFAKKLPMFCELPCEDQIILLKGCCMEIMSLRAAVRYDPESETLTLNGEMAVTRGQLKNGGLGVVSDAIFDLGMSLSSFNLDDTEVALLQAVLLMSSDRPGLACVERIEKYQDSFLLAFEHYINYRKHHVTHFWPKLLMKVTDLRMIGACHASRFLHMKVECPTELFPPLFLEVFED
T1 sequence (P19793 whole entry partner, other chains not shown, the tested form may be a part): as the sequence (P19793 whole entry partner, other chains not shown, the tested form may be a part) above

Consider `CC(C)c1cc(Oc2c(Br)cc(-n3nc(C#N)c(=O)[nH]c3=O)cc2Br)n[nH]c1=O` [Compound 13, 2-(3,5-Dibromo-4-((5-isopropyl-6-oxo-1,6-dihydropyridazin-3-yl)oxy)phenyl)-3,5-dioxy-2,3,4,5-tetrahydro-1,2,4-triazine-6-nitrile], for which, on THR-β, the EC50 came to 0.03 µM, the “Selectivity THR-β/THR-α” value is on record as 27 and the “Agonistic activity for THR-β compared to control compound MGL-3196” value was “significantly higher agonistic activities”. In addition, at THR-α, the EC50 stood at 0.8 µM and the “Agonistic activity for THR-α compared to control compound MGL-3196” value is listed as “significantly higher agonistic activities”.
For `[2H]c1c(Oc2c(Cl)cc(-n3nc(C#N)c(=O)[nH]c3=O)cc2Br)n[nH]c(=O)c1C(C([2H])([2H])[2H])C([2H])([2H])[2H]` [Compound 3, 2-(3-bromo-5-chloro-4-((4-deutero-5-(1,1,1,3,3,3-hexadeuteropropyl-2-yl)-6-oxo-1,6-dihydropyrazin-3-yl)oxy)phenyl)-3,5-dioxy-2,3,4,5-tetrahydro-1,2,4-triazine-6-nitrile], the results for the concentration for a half-maximal effect (EC50) on THR-β and at THR-α were 0.06 µM and 1.33 µM, respectively. For the same molecule, the “Agonistic activity for THR-β compared to control compound MGL-3196” value at THR-β is given as “significantly higher agonistic activities”.
For `[2H]C([2H])([2H])C(c1cc(Oc2c(Cl)cc(-n3nc(C#N)c(=O)[nH]c3=O)cc2Br)n[nH]c1=O)C([2H])([2H])[2H]` [Compound 2, 2-(3-bromo-5-chloro-4-((5-di(trideuteromethyl)methyl-6-oxo-1,6-dihydropyridazine-3-yl)oxy)phenyl)-3,5-dioxo-2,3,4,5-tetrahydro-1,2,4-triazine-6-nitrile], the 50% effective concentration (EC50) turned out to be 0.052 µM at THR-β and 1.06 µM on THR-α. Moreover, the AUC(0-inf) in data set [1] (ICR, mouse, plasma, dosage 2 mg/kg, route not given) came out at 9260 ng·h/mL. For the same molecule, in data set [1] (ICR, mouse, plasma, dosage 2 mg/kg, route not given, read-out: Half-life T1/2 (converted)), the half-life is 5.25 h. Also, the Cmax in data set [1] (ICR, mouse, plasma, dosage 2 mg/kg, route not given, read-out: Peak concentration Cmax) was determined as 960 ng/mL. In data set [1] (ICR, mouse, plasma, dosage 2 mg/kg, route not given, read-out: Peak time Tmax), the Tmax came out at 4 h. Also, the “Half-life compared to MGL-3196” value in data set [1] (compound at a lower dose, in words) is listed as “longer”.
`CC(C)c1cc(Oc2c(Cl)cc(-n3nc(C#N)c(=O)[nH]c3=O)cc2Cl)n[nH]c1=O` [MGL-3196, reference compound]: the AUC(0-inf) in data set [1] (ICR, mouse, plasma, dosage 5 mg/kg, route not given) was 9360 ng·h/mL. In addition, the “Peak time Tmax” value in data set [1] (dosage 5 mg/kg, route not given) is 2 h.
For the molecule `CC(C)c1cc(Oc2c(Cl)cc(-n3nc(C#N)c(=O)[nH]c3=O)cc2Br)n[nH]c1=O` [Compound 1, 2-(3-bronco-5-chloro-4-((5-isopropyl-6-oxo-1,6-dihydropyridazin-3-yl)oxy)phenyl)-3,5-dioxo-2,3,4,5-tetrahydro-1,2,4-triazine-6-nitrile], on THR-β, the EC50 stood at 0.057 µM and the “Agonistic activity for THR-β compared to control compound MGL-3196” value is listed as “significantly higher agonistic activities”. On THR-α, the EC50 was 1.02 µM and the “Agonistic activity for THR-α compared to control compound MGL-3196” value is “significantly higher agonistic activities”.
As for `[2H]C([2H])([2H])C(c1cc(Oc2c(Br)cc(-n3nc(C#N)c(=O)[nH]c3=O)cc2Br)n[nH]c1=O)C([2H])([2H])[2H]` [Compound 14], at THR-β, the 50% effective concentration (EC50) worked out at 0.027 µM, the “Selectivity THR-β/THR-α” value is given as 12 and the “Agonistic activity for THR-β compared to control compound MGL-3196” value is given as “significantly higher agonistic activities”. At THR-α, the EC50 is 0.326 µM and the “Agonistic activity for THR-α compared to control compound MGL-3196” value is recorded as “significantly higher agonistic activities”.
Take `[2H]c1c(Oc2c(Br)cc(-n3nc(C#N)c(=O)[nH]c3=O)cc2Br)n[nH]c(=O)c1C(C([2H])([2H])[2H])C([2H])([2H])[2H]` [Compound 15, 2-(3,5-dibromo-4-((6-oxo-5-(propan-2-yl-1,1,1,3,3,3-d6)-1,6-dihydropyridazin-3-yl-4-d)oxy)phenyl)-3,5-dioxy-2,3,4,5-tetrahydro-1,2,4-triazine-6-nitrile]: on THR-β, the EC50 stood at 0.019 µM, the “Selectivity THR-β/THR-α” value is 18 and the “Agonistic activity for THR-β compared to control compound MGL-3196” value is reported as “significantly higher agonistic activities”. At THR-α, the EC50 came out at 0.349 µM and the “Agonistic activity for THR-α compared to control compound MGL-3196” value was “significantly higher agonistic activities”.

What is called EC50 is the concentration giving half of the maximal effect. One may read the Tmax as the time from dosing to the highest level.
